Our source for the IC50 values is patent publication US20260124222A1, “ISOTHIAZOLYLCARBOXAMIDE COMPOUNDS AND THEIR USE IN THERAPY” (HOTSPOT THERAPEUTICS, INC., priority 2022, published 2026).

A value given as a limit tells only on which side of the number the result lay.

This experiment concerns the target T1, Avi-tagged FL MALT-1 (Homo sapiens, UniProt Q9UDY8).
T1 construct: Avi-tagged FL MALT-1 (Pharmaron, stored at −70° C.); Avi-tag; purchased Pharmaron
T1 sequence (Q9UDY8 1-824): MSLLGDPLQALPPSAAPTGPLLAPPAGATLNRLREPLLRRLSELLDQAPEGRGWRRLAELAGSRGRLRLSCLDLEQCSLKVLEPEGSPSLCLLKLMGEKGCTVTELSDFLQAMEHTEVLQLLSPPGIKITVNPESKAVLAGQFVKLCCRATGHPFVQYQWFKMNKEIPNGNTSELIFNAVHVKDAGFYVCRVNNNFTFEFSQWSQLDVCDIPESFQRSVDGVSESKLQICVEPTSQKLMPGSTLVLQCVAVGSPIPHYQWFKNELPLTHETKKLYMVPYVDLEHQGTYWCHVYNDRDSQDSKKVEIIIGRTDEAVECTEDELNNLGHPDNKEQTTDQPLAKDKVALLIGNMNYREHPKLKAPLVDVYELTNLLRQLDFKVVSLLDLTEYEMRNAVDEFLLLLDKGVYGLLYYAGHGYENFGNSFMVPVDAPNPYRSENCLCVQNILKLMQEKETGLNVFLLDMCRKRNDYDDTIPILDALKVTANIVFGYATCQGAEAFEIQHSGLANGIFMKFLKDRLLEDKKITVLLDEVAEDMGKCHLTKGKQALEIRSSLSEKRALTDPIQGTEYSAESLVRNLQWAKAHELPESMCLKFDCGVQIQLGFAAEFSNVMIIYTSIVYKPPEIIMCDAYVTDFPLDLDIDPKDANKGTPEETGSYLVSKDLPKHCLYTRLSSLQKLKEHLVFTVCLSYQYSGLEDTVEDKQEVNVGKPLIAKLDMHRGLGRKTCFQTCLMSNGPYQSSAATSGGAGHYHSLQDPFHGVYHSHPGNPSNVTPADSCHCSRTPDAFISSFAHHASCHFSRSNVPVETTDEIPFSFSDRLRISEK
Description: MALT-1 Fluorogenic Peptide Cleavage Assay (MALT1 inhibition assay). The class given is biochemical. To be noted: Ac-LRSR-AMC peptide substrate; 30 min pre-incubation, 90 min reaction at room temperature; fluorescence. An outline of the steps: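 Full-length Avi-tagged enzyme preincubated 30 min at room temperature with compound (2% DMSO final) in HEPES pH 6.89 buffer with sodium citrate, TCEP, EDTA and CHAPS. Ac-LRSR-AMC substrate added at Km or 10×Km (working stocks 50 or […] μM); fluorescence (ex 342/em 441 nm) after 90 min; IC50 from sigmoidal fit.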

Consider `O=C(Nc1ccc(C(=O)N2CC(O)C2)c(Cl)c1)c1snc(-c2cccc3nccn23)c1C1CC1` [I-190, N-(3-chloro-4-(3-hydroxyazetidine-1-carbonyl)phenyl)-4-cyclopropyl-3-(imidazo[1,2-a]pyridin-5-yl)isothiazole-5-carboxamide], for which the IC50 (usually the point on the concentration scale where inhibition reaches its midpoint) is at most 400 nM.
Molecule `Cc1cc(-c2nsc(C(=O)Nc3ccnc(C(F)(F)F)c3)c2C2CC2)ccn1` [I-191, 4-cyclopropyl-3-(2-methylpyridin-4-yl)-N-(2-(trifluoromethyl)pyridin-4-yl)isothiazole-5-carboxamide] registered an IC50 of at most 400 nM.
Molecule `O=C(Nc1ccnc(C(F)(F)F)c1)c1snc(-c2cnccc2F)c1C1CC1` [I-192, 4-cyclopropyl-3-(4-fluoropyridin-3-yl)-N-(2-(trifluoromethyl)pyridin-4-yl)isothiazole-5-carboxamide] registered a half-maximal inhibitory concentration (IC50) of at most 400 nM.
`CNC(=O)c1cccc(-c2nsc(C(=O)Nc3ccnc(C(F)(F)F)c3)c2C2CC2)c1` [I-193, 4-cyclopropyl-3-(3-(methylcarbamoyl)phenyl)-N-(2-(trifluoromethyl)pyridin-4-yl)isothiazole-5-carboxamide] displayed a half-maximal inhibitory concentration (IC50) of 400 to 1000 nM.
Turning to `O=C(Nc1ccnc(C(F)(F)F)c1)c1snc(-c2ccc3cncn3c2)c1C1CC1` [I-194, 4-cyclopropyl-3-(imidazo[1,5-a]pyridin-6-yl)-N-(2-(trifluoromethyl)pyridin-4-yl)isothiazole-5-carboxamide], the IC50 was at most 400 nM.
For `O=C(Nc1ccnc(C(F)(F)F)c1)c1snc(-c2cccc(F)c2)c1C1CC1` [I-195, 4-cyclopropyl-3-(3-fluorophenyl)-N-[2-(trifluoromethyl)pyridin-4-yl]-1,2-thiazole-5-carboxamide], the IC50 was at most 400 nM.
Then `Cc1cc(NC(=O)c2snc(-c3ccccc3)c2C2CC2)ccn1` [I-196, 4-cyclopropyl-N-(2-methylpyridin-4-yl)-3-phenylisothiazole-5-carboxamide], with at most 400 nM.
In turn, `Cc1noc(C)c1-c1nsc(C(=O)Nc2ccnc(C(F)(F)F)c2)c1C1CC1` [I-197, 4-cyclopropyl-3-(3,5-dimethylisoxazol-4-yl)-N-(2-(trifluoromethyl)pyridin-4-yl)isothiazole-5-carboxamide] had an IC50 of at most 400 nM.
In the case of `O=C(Nc1ccc(C(=O)N2CC(O)C2)c(Cl)c1)c1snc(-c2cccc3c(=O)[nH]ccc23)c1C1CC1` [I-198, N-(3-chloro-4-(3-hydroxyazetidine-1-carbonyl)phenyl)-4-cyclopropyl-3-(1-oxo-1,2-dihydroisoquinolin-5-yl)isothiazole-5-carboxamide], the IC50 was at most 400 nM.
The molecule `Cc1cc(NC(=O)c2snc(-c3cccc4ncccc34)c2C2CC2)ccn1` [I-199, 4-cyclopropyl-N-(2-methylpyridin-4-yl)-3-(quinolin-5-yl)isothiazole-5-carboxamide] yielded a 50% inhibitory concentration (IC50) of at most 400 nM.
`Cc1cc(NC(=O)c2snc(-c3cccc4c(=O)[nH]ccc34)c2C2CC2)ccn1` [I-200, 4-cyclopropyl-N-(2-methylpyridin-4-yl)-3-(1-oxo-1,2-dihydroisoquinolin-5-yl)isothiazole-5-carboxamide]: the IC50 is at most 400 nM.
Consider `Cc1cc(NC(=O)c2snc([C@@H]3CCOC3)c2C2CC2)ccn1` [I-201, (S)-4-cyclopropyl-N-(2-methylpyridin-4-yl)-3-(tetrahydrofuran-3-yl)isothiazole-5-carboxamide], for which the IC50 is over 2500 nM.
As to `Cc1cc(NC(=O)c2snc([C@H]3CCOC3)c2C2CC2)ccn1` [I-202, 4-cyclopropyl-N-(2-methylpyridin-4-yl)-3-[(3R)-oxolan-3-yl]-1,2-thiazole-5-carboxamide], the IC50 is over 2500 nM.
The figure for `Cn1cc2c(-c3nsc(C(=O)Nc4ccc(C(=O)N5CC(O)C5)c(Cl)c4)c3C3CC3)cccc2n1` [I-203, N-(3-chloro-4-(3-hydroxyazetidine-1-carbonyl)phenyl)-4-cyclopropyl-3-(2-methyl-2H-indazol-4-yl)isothiazole-5-carboxamide] is 400 to 1000 nM; for `O=C(Nc1ccnc(C(F)(F)F)c1)c1snc([C@@H]2CCOC2)c1C1CC1` [I-204, (S)-4-cyclopropyl-3-(tetrahydrofuran-3-yl)-N-(2-(trifluoromethyl)pyridin-4-yl)isothiazole-5-carboxamide] it is over 2500 nM; for `O=C(Nc1ccnc(C(F)(F)F)c1)c1snc([C@H]2CCOC2)c1C1CC1` [I-205, (R)-4-cyclopropyl-3-(tetrahydrofuran-3-yl)-N-(2-(trifluoromethyl)pyridin-4-yl)isothiazole-5-carboxamide] it is 1000 to 2500 nM.
Then `Cn1cc2c(-c3nsc(C(=O)Nc4cnc(-n5nccn5)c(C#N)c4)c3C3CC3)cccc2n1` [I-206, N-(5-cyano-6-(2H-1,2,3-triazol-2-yl)pyridin-3-yl)-4-cyclopropyl-3-(2-methyl-2H-indazol-4-yl)isothiazole-5-carboxamide], with at most 400 nM; and `Cn1nc2cccc(-c3nsc(C(=O)Nc4ccnc(C(F)(F)F)c4)c3C3CC3)c2n1` [I-207, 4-cyclopropyl-3-(2-methyl-2H-benzo[d][1,2,3]triazol-4-yl)-N-(2-(trifluoromethyl)pyridin-4-yl)isothiazole-5-carboxamide], with at most 400 nM; and `Cn1cc2cccc(-c3nsc(C(=O)Nc4ccnc(C(F)(F)F)c4)c3C3CC3)c2n1` [I-208, 4-cyclopropyl-3-(2-methyl-2H-indazol-7-yl)-N-(2-(trifluoromethyl)pyridin-4-yl)isothiazole-5-carboxamide], with 400 to 1000 nM.
Molecule `Cn1cc2c(-c3nsc(C(=O)Nc4cc(C(F)(F)F)ccn4)c3C3CC3)cccc2n1` [I-209, 4-cyclopropyl-3-(2-methylindazol-4-yl)-N-[4-(trifluoromethyl)pyridine-2-yl]-1,2-thiazole-5-carboxamide] registered an IC50 of over 2500 nM.
`O=C(Nc1ccnc(C(F)(F)F)c1)c1snc(-c2cccn3nccc23)c1C1CC1` [I-210, 4-cyclopropyl-3-(pyrazolo[1,5-a]pyridine-4-yl)-N-(2-(trifluoromethyl)pyridine-4-yl)isothiazole-5-carboxamide] displayed a half-inhibitory concentration (IC50) of at most 400 nM.
The figure for `Cc1cc(NC(=O)c2snc(-c3cccn4nccc34)c2C2CC2)ccn1` [I-211, 4-cyclopropyl-N-(2-methylpyridin-4-yl)-3-(pyrazolo[1,5-a]pyridine-4-yl)isothiazole-5-carboxamide] is at most 400 nM; for `O=C(Nc1cnc(C(=O)N2CC(O)C2)c(Cl)c1)c1snc(-c2cccn3nccc23)c1C1CC1` [I-212, N-(5-chloro-6-(3-hydroxyazetidine-1-carbonyl)pyridin-3-yl)-4-cyclopropyl-3-(pyrazolo[1,5-a]pyridin-4-yl)isothiazole-5-carboxamide] it is at most 400 nM.
